In US20230090337A1, “PHARMACEUTICAL FORMULATIONS COMPRISING 6-CHLORO-7-(4-(4-CHLOROBENZYL)PIPERAZIN-1 -YL)-2-(1,3-DIMETHYL-1 HPYRAZOL-4-YL)-3H- IMIDAZO[4,5-B]PYRIDINE” (ELLIPSES PHARMA LTD, priority 2020, published 2023):
Read-outs that look alike come from different tables or passages of the source.

Legend:
[1] = Stability / hygroscopicity of salts; assay type: physicochemical; conditions: e.g. due to lower hygroscopicity
[2] = Aqueous solubility of salt versus free base; assay type: physicochemical
[3] = Solubility of the compound of Formula (1) in non-ionic surfactants; assay type: physicochemical; conditions: thermodynamic from solid
Method: Approximately 3 mg of the compound of Formula (1) (monofumarate) was weighed out into clean HLPC vials. Various non-ionic surfactants were added in 200 or 300 μL portions up to 1 ml in total. After each addition, the sample was with vortexed (2×30 seconds) sonicated for 6 minutes, and once 1 ml total had been added the sample was kept in an oven at 45° C. for 40 minutes before being cooled to RT to aid dissolution. Observations are provided below:
Those excipients that have a melting point above ambient temperature were heated to above their melting point (e.g. 50° C.-70° C.) and observations were made in the liquid phase.

cytochrome P450 = conditions: cited from earlier work
hERG = hERG (Homo sapiens, UniProt Q12809); conditions: cited from earlier work
[4] = Excipient solubilising ability (20% w/v aqueous excipient solutions, DMSO spike, observed for precipitation); assay type: physicochemical; conditions: for solubility: aqueous with cosolvent or surfactant or cyclodextrin, kinetic from dmso stock
Method: Promising non-ionic surfactants were further tested. Each was prepared as a 20% w/v aqueous solution.
The excipients tested were (HLB): Cremophor EL (12-14); Cremophor RH 40 (14-16); Labrasol ALF; Solutol HS15 (˜16); Poloxamer P124 (12-18); TPGS (˜13); and Gelucire 44/14 (˜11).
Initially, the concentrated DMSO solution was prepared at 30 mg/mL to give a starting concentration of 3 mg/mL of the compound of Formula (1) in the aqueous vehicle, and the concentration was reduced until a semi-solid excipient was identified which maintained a clear solution of the compound. No excipients solubilised the compound at concentrations >1.5 mg/mL in this experiment, but TPGS unexpectedly performed best—solubilising the compound at a concentration of 1.5 mg/mL in the aqueous vehicle (e.g. 100 μL portion of a 15 mg/mL solution of the compound in DMSO was added to each excipient solution to achieve the final concentration of 1.5 mg/mL). In TPGS the solution remained clear for up to 5 hours.

FLT3 kinases = biological target: T1, FLT3 kinases (Homo sapiens, UniProt P36888); conditions: cited from earlier work
T1 sequence (P36888 27-993): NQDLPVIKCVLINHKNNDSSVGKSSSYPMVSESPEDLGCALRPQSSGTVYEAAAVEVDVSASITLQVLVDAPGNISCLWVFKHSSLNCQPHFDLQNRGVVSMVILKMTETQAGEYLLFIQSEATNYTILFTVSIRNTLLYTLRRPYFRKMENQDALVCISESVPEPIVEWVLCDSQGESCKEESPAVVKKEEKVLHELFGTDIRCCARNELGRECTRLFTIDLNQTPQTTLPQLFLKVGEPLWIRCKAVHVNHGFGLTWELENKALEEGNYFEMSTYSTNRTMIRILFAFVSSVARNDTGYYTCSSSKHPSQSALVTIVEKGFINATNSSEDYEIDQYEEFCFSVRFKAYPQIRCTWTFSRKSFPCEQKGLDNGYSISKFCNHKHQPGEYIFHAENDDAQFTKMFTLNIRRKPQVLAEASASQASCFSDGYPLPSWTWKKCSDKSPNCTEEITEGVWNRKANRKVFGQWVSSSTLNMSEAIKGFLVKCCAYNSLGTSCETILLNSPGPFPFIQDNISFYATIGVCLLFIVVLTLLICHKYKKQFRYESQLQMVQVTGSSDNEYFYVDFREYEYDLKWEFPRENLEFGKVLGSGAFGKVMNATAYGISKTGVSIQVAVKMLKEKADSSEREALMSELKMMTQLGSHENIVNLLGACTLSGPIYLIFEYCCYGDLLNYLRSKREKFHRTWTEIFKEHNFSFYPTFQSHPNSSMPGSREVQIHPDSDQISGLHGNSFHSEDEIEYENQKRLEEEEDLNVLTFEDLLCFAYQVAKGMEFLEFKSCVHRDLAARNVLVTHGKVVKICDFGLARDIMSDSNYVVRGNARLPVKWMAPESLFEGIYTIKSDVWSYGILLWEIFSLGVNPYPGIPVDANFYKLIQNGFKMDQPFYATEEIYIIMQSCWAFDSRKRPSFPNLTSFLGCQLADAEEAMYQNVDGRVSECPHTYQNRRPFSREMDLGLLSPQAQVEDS

Aurora B = Aurora B (Homo sapiens, UniProt Q96GD4); conditions: cited from earlier work
Aurora C = biological target: T2, Aurora C (Homo sapiens, UniProt Q9UQB9); conditions: cited from earlier work
T2 sequence (Q9UQB9 1-309): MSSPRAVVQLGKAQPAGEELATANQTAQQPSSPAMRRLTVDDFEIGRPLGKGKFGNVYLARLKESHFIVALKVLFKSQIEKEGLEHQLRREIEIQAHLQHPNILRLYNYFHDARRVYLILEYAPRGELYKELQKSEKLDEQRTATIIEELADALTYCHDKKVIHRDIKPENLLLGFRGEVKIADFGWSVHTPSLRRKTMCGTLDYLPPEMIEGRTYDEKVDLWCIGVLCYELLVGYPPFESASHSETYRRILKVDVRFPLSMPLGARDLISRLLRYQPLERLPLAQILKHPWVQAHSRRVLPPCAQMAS

Aurora A = biological target: T3, Aurora A (Homo sapiens, UniProt O14965); conditions: cited from earlier work
T3 sequence (O14965 1-403): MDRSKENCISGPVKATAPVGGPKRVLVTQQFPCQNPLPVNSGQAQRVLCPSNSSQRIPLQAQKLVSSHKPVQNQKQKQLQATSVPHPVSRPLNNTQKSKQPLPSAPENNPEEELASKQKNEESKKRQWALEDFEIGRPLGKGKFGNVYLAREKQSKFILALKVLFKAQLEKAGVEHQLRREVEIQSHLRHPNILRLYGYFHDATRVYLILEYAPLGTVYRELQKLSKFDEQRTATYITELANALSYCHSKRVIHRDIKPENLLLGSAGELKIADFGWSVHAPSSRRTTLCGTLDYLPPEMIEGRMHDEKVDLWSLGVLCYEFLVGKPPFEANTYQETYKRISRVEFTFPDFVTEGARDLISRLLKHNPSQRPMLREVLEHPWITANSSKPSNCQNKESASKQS

Chain of Aurora B (Q96GD4 whole entry): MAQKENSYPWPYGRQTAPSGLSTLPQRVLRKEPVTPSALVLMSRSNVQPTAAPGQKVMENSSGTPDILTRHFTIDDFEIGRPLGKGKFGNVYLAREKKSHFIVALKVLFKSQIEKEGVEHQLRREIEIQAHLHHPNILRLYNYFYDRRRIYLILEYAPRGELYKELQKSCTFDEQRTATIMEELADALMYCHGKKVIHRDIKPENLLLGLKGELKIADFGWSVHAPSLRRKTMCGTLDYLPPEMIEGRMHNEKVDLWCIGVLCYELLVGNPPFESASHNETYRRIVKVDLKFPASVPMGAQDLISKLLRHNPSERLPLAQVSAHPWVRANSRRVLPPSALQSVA
Chain of hERG (Q12809 whole entry): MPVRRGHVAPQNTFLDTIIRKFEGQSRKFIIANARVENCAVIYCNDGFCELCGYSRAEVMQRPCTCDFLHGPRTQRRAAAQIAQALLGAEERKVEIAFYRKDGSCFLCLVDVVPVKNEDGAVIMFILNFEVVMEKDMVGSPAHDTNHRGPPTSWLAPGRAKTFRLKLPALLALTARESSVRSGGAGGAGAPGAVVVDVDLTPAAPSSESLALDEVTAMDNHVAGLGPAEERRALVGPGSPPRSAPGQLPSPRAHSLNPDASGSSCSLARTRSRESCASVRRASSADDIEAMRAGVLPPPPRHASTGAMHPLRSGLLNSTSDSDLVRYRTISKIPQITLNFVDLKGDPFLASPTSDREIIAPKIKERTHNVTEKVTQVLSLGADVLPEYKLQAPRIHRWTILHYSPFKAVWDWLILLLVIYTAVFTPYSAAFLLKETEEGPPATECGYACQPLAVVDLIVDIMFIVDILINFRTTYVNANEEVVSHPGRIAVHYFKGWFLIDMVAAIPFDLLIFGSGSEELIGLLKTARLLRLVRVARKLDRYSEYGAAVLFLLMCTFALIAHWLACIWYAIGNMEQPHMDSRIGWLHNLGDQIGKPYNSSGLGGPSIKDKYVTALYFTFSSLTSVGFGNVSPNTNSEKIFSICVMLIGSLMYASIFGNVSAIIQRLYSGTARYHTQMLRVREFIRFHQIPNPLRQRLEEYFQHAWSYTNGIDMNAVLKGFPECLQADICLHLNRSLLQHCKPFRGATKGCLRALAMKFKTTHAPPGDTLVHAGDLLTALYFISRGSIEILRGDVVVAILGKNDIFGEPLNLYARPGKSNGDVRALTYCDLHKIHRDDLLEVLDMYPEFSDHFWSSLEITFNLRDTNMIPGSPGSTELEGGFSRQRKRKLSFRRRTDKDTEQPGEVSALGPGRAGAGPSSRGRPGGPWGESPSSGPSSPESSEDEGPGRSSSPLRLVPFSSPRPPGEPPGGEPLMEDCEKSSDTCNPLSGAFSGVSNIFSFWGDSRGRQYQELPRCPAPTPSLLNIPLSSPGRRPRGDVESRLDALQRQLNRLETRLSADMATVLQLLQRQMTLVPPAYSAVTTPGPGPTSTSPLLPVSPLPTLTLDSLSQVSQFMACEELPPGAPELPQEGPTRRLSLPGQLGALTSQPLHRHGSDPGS

Cc1nn(C)cc1-c1nc2c(N3CCN(Cc4ccc(Cl)cc4)CC3)c(Cl)cnc2[nH]1.O=C(O)/C=C/C(=O)O [compound of Formula (1) fumarate, 6-chloro-7-(4-(4-chlorobenzyl)piperazin-1-yl)-2-(1,3-dimethyl-1H-pyrazol-4-yl)-3H-imidazo[4,5-b]pyridine fumarate]
stability compared with other pharmaceutically acceptable salts [1]: greater stability
aqueous solubility compared with free base [2]: higher aqueous solubility than the free base
solubility at 40 min ([3]; Capryol 90 (non-ionic surfactant), oil or lipid, in Capryol 90 (fatty acid ester)): < 4600 µg/mL
solubility at 40 min ([3]; Capryol PC MG (non-ionic surfactant), oil or lipid, in Capryol PC MG (fatty acid ester)): < 3600 µg/mL
solubility at 40 min ([3]; Cremophor EL (non-ionic surfactant), organic solvent or mixture, in Cremophor EL (glycerol derivative)): < 4900 µg/mL
solubility at 40 min ([3]; Cremophor RH40 (non-ionic surfactant), organic solvent or mixture, in Cremophor RH40 (glycerol derivative)): < 4400 µg/mL
solubility at 40 min ([3]; Gelucire 44/14 (non-ionic surfactant), organic solvent or mixture, in Gelucire 44/14 (fatty acid ester/glycerol derivative)): < 3500 µg/mL
solubility at 40 min ([3]; Gelucire 50/13 (non-ionic surfactant), organic solvent or mixture, in Gelucire 50/13 (fatty acid ester/glycerol derivative)): < 2700 µg/mL
solubility at 40 min ([3]; Kollisolv P124 (non-ionic surfactant), organic solvent or mixture, in Kollisolv P124 (co-polymer)): < 4500 µg/mL
solubility at 40 min ([3]; Labrafac PC (non-ionic surfactant), oil or lipid, in Labrafac PC (fatty acid ester)): < 2100 µg/mL
solubility at 40 min ([3]; Labrafil 1944 (non-ionic surfactant), oil or lipid, in Labrafil 1944 (glycerol derivative)): < 5000 µg/mL
solubility at 40 min ([3]; Labrafil 2125 (non-ionic surfactant), oil or lipid, in Labrafil 2125 (glycerol derivative)): < 5500 µg/mL
solubility at 40 min ([3]; Labrasol ALF (non-ionic surfactant), organic solvent or mixture, in Labrasol ALF (glycerol derivative)): < 3500 µg/mL
solubility at 40 min ([3]; Miglyol 812N (non-ionic surfactant), oil or lipid, in Miglyol 812N (glycerol derivative)): < 3200 µg/mL
solubility at 40 min ([3]; Softisan 378 (non-ionic surfactant), oil or lipid, in Softisan 378 (glycerol derivative)): < 4300 µg/mL
solubility at 40 min ([3]; Tween 80 (non-ionic surfactant), organic solvent or mixture, in Tween 80 (sorbitan derivative), ~3 mg monofumarate, up to 1 ml, vortexed, sonicated, 45° C. 40 min): < 3700 µg/mL
solubility at 40 min ([3]; Vitamin E TPGS (non-ionic surfactant), organic solvent or mixture, in Vitamin E TPGS (vitamin E derivative)): < 3200 µg/mL

Cc1nn(C)cc1-c1nc2c(N3CCN(Cc4ccc(Cl)cc4)CC3)c(Cl)cnc2[nH]1 [compound of Formula (1), 6-chloro-7-(4-(4-chlorobenzyl)piperazin-1-yl)-2-(1,3-dimethyl-1H-pyrazol-4-yl)-3H-imidazo[4,5-b]pyridine]
interaction with cytochrome P450 activity (cytochrome P450): minimal interaction
interaction with hERG (hERG): minimal interaction
time the suspension remained stable ([4]; 20% w/v aqueous Gelucire 44/14, 1.5 mg/mL): at least 10 days
time the suspension remained stable ([4]; 20% w/v aqueous Poloxamer P124, 1.5 mg/mL): at least 10 days
solubility ([4]; 20% w/v aqueous TPGS solution, 20% w/v aqueous TPGS, 100 μL DMSO solution added to 900 μL excipient solution, read-out: concentration solubilised (clear solution) in the aqueous vehicle): 1500 µg/mL
time the solution remained clear ([4]; 20% w/v aqueous TPGS, 1.5 mg/mL): up to 5 hours
solubility ([4]; 20% w/v aqueous Cremophor EL, Cremophor RH 40, Labrasol ALF, Solutol HS15, Poloxamer P124, TPGS, Gelucire 44/14, read-out: concentration solubilised by any tested excipient): ≤ 1500 µg/mL
activity against FLT3 kinases (FLT3 kinases): high activity
activity against Aurora B (Aurora B): high activity
activity against Aurora C (Aurora C): high activity
activity against Aurora A (Aurora A): high activity
